In PMC5915715, “Inhibitors of both the N-methyl lysyl- and arginyl-demethylase activities of the JmjC oxygenases” (Philosophical Transactions of the Royal Society B: …, 2018):

T1: KDM4E (JMJD2E); KDM4E(1-377) (Homo sapiens, UniProt B2RXH2)
T1 construct: residues 1-377 (JmjN and JmjC domains); recombinant, E. coli BL21(DE3)-R3 with pRARE2
T1 sequence (B2RXH2 1-377): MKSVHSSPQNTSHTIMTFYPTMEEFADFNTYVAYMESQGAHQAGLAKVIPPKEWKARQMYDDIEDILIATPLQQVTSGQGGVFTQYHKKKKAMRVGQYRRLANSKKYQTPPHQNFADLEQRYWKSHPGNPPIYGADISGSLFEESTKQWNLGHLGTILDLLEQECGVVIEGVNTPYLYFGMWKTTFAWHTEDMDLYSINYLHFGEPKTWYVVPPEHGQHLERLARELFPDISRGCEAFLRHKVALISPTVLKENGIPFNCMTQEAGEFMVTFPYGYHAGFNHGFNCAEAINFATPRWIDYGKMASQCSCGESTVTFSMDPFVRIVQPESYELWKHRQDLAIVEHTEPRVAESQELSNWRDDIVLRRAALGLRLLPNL


The molecules below were run against T1, KDM4E (JMJD2E); KDM4E(1-377) (assay: RapidFire MS demethylation assay). Details: read-out: pIC50 ± s.e.m. / inhibition of H3(1-15)K9me2 demethylation (converted).
Assay type: biochemical

Molecule	IC50 [µM]
CCN(CCN(C)C)C(=O)CNCc1cc(C(=O)O)ccn1 [KDM5-C49]	2.09
O=C(O)/C=C/C(=O)O [fumarate]	1950
O=C(O)CC[C@H](O)C(=O)O [L-2HG]	13.5
O=C(O)CC[C@@H](O)C(=O)O [D-2HG]	11.5
CCN(CCN(C)C)C(=O)CNCc1cc(C(N)=O)ccn1 [KDOAM25]	182
CC(C)c1c(-c2ccccc2)[nH]c2c(C#N)cnn2c1=O [CPI-455]	4.47

More lines, now with the values ahead:

IC50 [µM]	Molecule
2.4	CC(=O)N(O)CCCCCNC(=O)CCC(=O)N(O)CCCCCNC(=O)CCC(=O)N(O)CCCCCN [deferoxamine]
4.79	CN(C)CCCNC(=O)c1ccc(-c2cc(O)c3ncccc3c2)cc1 [ML324]
148	O=C(O)CCC(=O)O [succinate]

Each molecule was assayed on O=C(O)CCC(=O)C(=O)O (assay: steady-state kinetics (supplement)). Details: 50 mM HEPES pH 7.5, Fe(II), ascorbate, approximate value, peptide substrate not stated.
Assay type: biochemical, Homo sapiens

Molecule	Km [µM]
KDM4E (JMJD2E); KDM4E(1-377) (Homo sapiens) (protein, residues 1-377 (JmjN and JmjC domains); recombinant, E. coli BL21(DE3)-R3 with pRARE2) MKSVHSSPQNTSHTIMTFYPTMEEFADFNTYVAYMESQGAHQAGLAKVIPPKEWKARQMYDDIEDILIATPLQQVTSGQGGVFTQYHKKKKAMRVGQYRRLANSKKYQTPPHQNFADLEQRYWKSHPGNPPIYGADISGSLFEESTKQWNLGHLGTILDLLEQECGVVIEGVNTPYLYFGMWKTTFAWHTEDMDLYSINYLHFGEPKTWYVVPPEHGQHLERLARELFPDISRGCEAFLRHKVALISPTVLKENGIPFNCMTQEAGEFMVTFPYGYHAGFNHGFNCAEAINFATPRWIDYGKMASQCSCGESTVTFSMDPFVRIVQPESYELWKHRQDLAIVEHTEPRVAESQELSNWRDDIVLRRAALGLRLLPNL	10

Each molecule was assayed against T1, KDM4E (JMJD2E); KDM4E(1-377) (assay: RapidFire MS demethylation assay). Details: KDM activity: 5 µM H3(1-15)K9me2, 0.25 µM enzyme, 10 µM Fe(II), 100 µM ascorbate, 10 µM 2OG, 50 mM HEPES pH 7.5, 15 min; iron chelator, may act by chelating iron in solution; unreliable (printed s.e.m).
Assay type: biochemical
Source text: RapidFire MS demethylation assay on KDM4E (JMJD2E); KDM4E(1-377)

pIC50 ± s.e.m. / inhibition of H3(1-15)K9me2 demethylation	Molecule
5.82 ± 6.53 -log10(M)	O=C(O)CN(CCN(CC(=O)O)CC(=O)O)CC(=O)O [EDTA]
